This is an account of results in US20240246942A1, “KINASE INHIBITORS FOR THE TREATMENT OF NEURODEGENERATIVE DISEASES” (priority 2020, published 2024).

Test in all cases: biochemical
Assay [1] addresses T1, panel of 374 wild-type kinases (Homo sapiens, UniProt O14578).
T1 construct: purchased Reaction Biology Corporation
The following applies: read-out: % Enzyme Activity (relative to DMSO controls), kinase STK21/CIT.

For assay [2], the target named is T2, panel of 374 wild-type kinases (Homo sapiens, UniProt Q02156).
T2 construct: purchased Reaction Biology Corporation
The note with it: read-out: % Enzyme Activity (relative to DMSO controls), kinase PKCepsilon; 5 uM.

Assay [3] deals with T3, panel of 374 wild-type kinases (Homo sapiens, UniProt Q00534).
T3 construct: purchased Reaction Biology Corporation
The following applies: 5 uM.

In assay [4] the target is T4, panel of 374 wild-type kinases (Homo sapiens, UniProt Q56UN5).
T4 construct: purchased Reaction Biology Corporation
The following applies: read-out: % Enzyme Activity (relative to DMSO controls), kinase YSK4/MAP3K19.

The target in assay [5] is T5, panel of 374 wild-type kinases (Homo sapiens, UniProt Q99640).
T5 construct: purchased Reaction Biology Corporation
The following applies: read-out: % Enzyme Activity (relative to DMSO controls), kinase PKMYT1; 5 uM.

Assay [6] has as its target T6, panel of 374 wild-type kinases (Homo sapiens, UniProt Q8IY84).
T6 construct: purchased Reaction Biology Corporation
The note with it: read-out: % Enzyme Activity (relative to DMSO controls), NIM1; 5 uM.

Assay [7] concerns the target T7, panel of 374 wild-type kinases (Homo sapiens, UniProt P52333).
T7 construct: purchased Reaction Biology Corporation
T7 sequence (P52333 1-1124): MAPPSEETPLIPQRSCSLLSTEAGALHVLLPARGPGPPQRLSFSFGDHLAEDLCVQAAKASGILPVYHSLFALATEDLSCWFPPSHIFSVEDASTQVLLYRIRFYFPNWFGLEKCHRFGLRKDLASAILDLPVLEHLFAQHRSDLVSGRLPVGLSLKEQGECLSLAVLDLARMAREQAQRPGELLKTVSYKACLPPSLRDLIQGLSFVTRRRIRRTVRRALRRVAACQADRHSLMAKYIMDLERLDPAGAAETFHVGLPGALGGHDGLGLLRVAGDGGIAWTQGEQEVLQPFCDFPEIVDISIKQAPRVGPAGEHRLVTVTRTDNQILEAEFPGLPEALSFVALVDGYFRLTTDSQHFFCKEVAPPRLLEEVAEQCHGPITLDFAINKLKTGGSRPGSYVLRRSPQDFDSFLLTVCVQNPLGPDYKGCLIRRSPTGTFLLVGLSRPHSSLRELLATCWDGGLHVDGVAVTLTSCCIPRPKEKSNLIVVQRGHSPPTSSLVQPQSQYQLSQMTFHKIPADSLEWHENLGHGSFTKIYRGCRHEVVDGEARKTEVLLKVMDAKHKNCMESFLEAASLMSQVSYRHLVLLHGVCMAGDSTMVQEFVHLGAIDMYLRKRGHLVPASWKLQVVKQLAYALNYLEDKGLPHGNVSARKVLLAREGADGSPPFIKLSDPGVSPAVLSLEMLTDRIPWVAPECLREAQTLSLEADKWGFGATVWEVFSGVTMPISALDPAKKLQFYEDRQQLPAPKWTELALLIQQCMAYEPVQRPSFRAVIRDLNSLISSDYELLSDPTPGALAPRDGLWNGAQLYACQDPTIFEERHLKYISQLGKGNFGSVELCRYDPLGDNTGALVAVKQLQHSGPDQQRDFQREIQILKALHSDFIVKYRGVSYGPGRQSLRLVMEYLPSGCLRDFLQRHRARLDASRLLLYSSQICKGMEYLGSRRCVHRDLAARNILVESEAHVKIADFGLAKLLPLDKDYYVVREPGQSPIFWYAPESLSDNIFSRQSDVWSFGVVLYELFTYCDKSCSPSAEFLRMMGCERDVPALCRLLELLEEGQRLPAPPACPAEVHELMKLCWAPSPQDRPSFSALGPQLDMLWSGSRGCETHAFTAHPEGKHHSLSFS
The following applies: read-out: % Enzyme Activity (relative to DMSO controls), JAK3.

Assay [8] deals with T8, panel of 374 wild-type kinases (Homo sapiens, UniProt P30291).
T8 construct: purchased Reaction Biology Corporation
The note with it: read-out: % Enzyme Activity (relative to DMSO controls), kinase WEE1; 5 uM.

Assay [9] concerns the target T9, panel of 374 wild-type kinases (Homo sapiens, UniProt Q9Y572).
T9 construct: purchased Reaction Biology Corporation
The note with it: read-out: % Enzyme Activity (relative to DMSO controls), kinase RIPK3; 5 uM.

Assay [10] deals with T10, panel of 374 wild-type kinases (Homo sapiens, UniProt Q12852).
T10 construct: purchased Reaction Biology Corporation
The following applies: read-out: % Enzyme Activity (relative to DMSO controls), DLK/MAP3K12; 5 uM.

For assay [11], the target named is T11, panel of 374 wild-type kinases (Homo sapiens, UniProt O43293).
T11 construct: purchased Reaction Biology Corporation
The note with it: read-out: % Enzyme Activity (relative to DMSO controls), kinase ZIPK/DAPK3.

For assay [12], the target named is T12, panel of 374 wild-type kinases (Homo sapiens, UniProt P68400).
T12 construct: purchased Reaction Biology Corporation
The note with it: CK2a, read-out: % Enzyme Activity (relative to DMSO controls).

The target in assay [13] is T13, panel of 374 wild-type kinases (Homo sapiens, UniProt O60307).
T13 construct: purchased Reaction Biology Corporation
The following applies: read-out: % Enzyme Activity (relative to DMSO controls), MAST3.

Assay [14] deals with T14, panel of 374 wild-type kinases (Homo sapiens, UniProt O15111).
T14 construct: purchased Reaction Biology Corporation
The following applies: read-out: % Enzyme Activity (relative to DMSO controls), IKKa/CHUK.

Where [15] appears, read: read-out: % Enzyme Activity (relative to DMSO controls), CDK6/cyclin D1.
Where [16] appears, read: read-out: % Enzyme Activity (relative to DMSO controls), CDK6/cyclin D3.

The structures appear in SMILES notation. Read-outs that look alike come from different tables or passages of the source.

T3 sequence (Q00534 whole entry): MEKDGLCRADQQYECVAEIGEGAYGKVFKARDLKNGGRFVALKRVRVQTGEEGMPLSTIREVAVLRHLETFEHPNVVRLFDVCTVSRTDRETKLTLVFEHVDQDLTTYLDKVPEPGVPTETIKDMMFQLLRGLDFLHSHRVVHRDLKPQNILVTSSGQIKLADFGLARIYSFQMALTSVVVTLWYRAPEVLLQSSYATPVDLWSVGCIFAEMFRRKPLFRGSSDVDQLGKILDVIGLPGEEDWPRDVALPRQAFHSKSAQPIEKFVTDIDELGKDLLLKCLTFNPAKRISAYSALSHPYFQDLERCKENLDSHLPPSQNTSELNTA
T9 sequence (Q9Y572 whole entry): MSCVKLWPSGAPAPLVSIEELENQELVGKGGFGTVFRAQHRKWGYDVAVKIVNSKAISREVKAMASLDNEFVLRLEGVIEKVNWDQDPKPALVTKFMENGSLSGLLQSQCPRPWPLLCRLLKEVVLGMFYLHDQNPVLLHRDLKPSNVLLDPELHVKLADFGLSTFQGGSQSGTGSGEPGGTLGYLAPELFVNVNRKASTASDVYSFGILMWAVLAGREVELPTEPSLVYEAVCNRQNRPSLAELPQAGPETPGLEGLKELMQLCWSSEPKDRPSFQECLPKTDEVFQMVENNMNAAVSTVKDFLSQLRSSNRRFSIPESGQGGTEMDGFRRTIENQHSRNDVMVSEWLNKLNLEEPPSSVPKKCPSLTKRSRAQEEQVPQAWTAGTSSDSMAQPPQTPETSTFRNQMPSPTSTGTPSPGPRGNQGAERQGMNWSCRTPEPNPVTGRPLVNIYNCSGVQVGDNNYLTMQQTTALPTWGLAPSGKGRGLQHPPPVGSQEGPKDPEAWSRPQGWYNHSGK
T13 sequence (O60307 whole entry): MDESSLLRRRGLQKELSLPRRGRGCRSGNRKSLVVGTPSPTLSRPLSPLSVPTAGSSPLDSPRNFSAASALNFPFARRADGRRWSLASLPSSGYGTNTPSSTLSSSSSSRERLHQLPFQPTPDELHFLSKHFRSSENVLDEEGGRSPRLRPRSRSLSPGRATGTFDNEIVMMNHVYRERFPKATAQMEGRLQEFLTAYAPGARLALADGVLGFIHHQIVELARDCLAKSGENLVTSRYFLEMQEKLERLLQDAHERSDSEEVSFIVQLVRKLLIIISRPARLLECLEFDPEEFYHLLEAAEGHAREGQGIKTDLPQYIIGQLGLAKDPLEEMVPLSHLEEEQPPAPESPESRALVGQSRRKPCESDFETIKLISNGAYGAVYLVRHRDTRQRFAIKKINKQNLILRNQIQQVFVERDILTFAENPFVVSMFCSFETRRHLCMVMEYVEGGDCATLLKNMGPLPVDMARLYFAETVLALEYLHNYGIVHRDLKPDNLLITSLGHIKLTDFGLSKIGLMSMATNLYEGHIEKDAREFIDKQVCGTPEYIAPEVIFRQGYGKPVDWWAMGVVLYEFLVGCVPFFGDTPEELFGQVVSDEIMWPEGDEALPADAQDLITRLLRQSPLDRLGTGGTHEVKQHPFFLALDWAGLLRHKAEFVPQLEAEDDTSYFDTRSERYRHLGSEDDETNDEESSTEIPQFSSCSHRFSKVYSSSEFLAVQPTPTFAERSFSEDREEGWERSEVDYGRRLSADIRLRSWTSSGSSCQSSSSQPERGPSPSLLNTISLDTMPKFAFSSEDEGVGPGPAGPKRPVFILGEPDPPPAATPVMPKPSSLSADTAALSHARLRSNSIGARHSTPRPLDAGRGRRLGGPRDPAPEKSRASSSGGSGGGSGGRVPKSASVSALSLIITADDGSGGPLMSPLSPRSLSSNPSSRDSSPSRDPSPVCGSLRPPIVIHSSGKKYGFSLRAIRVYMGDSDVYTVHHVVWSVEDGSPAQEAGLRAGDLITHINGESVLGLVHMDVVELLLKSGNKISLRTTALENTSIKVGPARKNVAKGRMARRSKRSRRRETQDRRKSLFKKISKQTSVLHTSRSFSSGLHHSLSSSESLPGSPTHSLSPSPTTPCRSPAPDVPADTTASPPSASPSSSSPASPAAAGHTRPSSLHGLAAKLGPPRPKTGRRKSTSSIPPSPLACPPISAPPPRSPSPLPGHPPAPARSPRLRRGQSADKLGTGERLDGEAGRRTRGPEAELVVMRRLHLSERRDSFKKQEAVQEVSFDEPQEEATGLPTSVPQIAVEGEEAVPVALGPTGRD
T6 sequence (Q8IY84 whole entry): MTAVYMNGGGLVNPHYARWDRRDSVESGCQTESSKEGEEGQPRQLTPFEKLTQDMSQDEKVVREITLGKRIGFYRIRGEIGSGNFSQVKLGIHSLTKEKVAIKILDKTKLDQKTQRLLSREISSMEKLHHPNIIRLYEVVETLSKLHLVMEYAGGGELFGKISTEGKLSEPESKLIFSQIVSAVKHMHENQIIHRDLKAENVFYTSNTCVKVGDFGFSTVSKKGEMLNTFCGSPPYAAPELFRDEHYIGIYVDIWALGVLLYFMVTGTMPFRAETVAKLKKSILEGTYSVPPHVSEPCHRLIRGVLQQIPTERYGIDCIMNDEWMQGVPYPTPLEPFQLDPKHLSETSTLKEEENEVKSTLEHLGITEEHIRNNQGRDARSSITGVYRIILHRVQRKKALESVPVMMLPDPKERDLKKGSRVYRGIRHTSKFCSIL
T5 sequence (Q99640 whole entry): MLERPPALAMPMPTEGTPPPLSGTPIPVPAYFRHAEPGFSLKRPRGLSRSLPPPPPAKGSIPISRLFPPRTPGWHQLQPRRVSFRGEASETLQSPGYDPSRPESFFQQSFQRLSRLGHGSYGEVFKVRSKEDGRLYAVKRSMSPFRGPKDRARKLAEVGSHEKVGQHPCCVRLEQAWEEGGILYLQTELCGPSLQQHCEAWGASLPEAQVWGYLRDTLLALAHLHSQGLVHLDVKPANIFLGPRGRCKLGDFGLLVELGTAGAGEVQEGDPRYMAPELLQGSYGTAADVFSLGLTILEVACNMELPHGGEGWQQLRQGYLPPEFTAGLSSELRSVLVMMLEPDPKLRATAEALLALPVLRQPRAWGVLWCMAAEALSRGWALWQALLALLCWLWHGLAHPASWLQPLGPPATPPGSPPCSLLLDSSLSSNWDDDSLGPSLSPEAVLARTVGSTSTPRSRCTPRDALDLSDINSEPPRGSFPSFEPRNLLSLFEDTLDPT
T10 sequence (Q12852 whole entry): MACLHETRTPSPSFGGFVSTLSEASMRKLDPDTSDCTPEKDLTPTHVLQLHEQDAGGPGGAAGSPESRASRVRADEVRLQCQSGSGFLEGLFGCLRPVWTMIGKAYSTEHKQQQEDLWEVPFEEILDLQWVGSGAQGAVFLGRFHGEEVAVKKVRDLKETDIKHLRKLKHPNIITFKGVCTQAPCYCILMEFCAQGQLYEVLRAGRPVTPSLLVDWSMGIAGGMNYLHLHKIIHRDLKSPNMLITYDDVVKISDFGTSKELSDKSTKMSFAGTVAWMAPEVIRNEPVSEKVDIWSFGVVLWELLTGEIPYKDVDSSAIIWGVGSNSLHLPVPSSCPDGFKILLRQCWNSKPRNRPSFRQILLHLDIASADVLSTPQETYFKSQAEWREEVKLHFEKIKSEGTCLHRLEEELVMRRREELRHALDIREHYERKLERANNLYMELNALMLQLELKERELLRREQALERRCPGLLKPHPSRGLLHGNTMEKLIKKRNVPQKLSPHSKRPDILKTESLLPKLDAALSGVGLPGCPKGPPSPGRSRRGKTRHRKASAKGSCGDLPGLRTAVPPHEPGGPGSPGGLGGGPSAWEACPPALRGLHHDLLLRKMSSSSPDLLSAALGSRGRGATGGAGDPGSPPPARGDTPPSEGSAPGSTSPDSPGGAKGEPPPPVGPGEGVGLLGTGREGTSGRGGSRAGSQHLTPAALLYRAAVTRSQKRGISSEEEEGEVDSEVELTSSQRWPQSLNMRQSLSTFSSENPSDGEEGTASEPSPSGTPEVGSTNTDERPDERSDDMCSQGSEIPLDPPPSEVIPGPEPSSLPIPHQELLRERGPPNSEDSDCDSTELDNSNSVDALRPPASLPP
T8 sequence (P30291 whole entry): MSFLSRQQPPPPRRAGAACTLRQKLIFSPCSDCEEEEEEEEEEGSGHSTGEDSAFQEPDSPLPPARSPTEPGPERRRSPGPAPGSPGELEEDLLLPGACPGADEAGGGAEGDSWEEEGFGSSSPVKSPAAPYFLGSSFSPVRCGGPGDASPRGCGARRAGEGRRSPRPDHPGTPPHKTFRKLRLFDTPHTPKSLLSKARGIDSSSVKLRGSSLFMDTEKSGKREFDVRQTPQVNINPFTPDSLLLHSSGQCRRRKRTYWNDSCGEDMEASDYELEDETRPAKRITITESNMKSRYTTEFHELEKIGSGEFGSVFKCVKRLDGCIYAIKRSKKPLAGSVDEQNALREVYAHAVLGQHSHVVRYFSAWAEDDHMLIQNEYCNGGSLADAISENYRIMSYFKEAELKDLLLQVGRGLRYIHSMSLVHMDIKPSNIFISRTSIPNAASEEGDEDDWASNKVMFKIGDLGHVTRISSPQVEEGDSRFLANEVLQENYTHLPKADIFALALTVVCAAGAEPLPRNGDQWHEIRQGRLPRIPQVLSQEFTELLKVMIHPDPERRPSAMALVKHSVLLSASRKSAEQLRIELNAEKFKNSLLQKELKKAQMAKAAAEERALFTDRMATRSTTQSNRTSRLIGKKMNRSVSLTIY
T12 sequence (P68400 whole entry): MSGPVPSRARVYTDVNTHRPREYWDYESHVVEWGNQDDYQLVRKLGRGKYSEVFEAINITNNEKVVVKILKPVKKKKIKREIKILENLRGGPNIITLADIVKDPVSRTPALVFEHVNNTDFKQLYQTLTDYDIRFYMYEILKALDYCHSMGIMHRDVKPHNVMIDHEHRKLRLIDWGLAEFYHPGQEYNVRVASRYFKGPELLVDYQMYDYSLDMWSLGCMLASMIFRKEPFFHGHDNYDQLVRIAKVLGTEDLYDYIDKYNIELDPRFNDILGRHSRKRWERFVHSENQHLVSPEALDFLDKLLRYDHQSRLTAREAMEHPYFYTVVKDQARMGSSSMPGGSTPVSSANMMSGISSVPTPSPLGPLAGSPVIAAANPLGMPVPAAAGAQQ

As to `O=C(Nc1cnn(-c2csc(C(=O)NC3COC3)c2)c1)Nc1ccccc1Cl` [Compound 17, 4-(4-(3-(2-chlorophenyl)ureido)-1H-pyrazol-1-yl)-N-(oxetan-3-yl)thiophene-2-carboxamide], the remaining activity at 5 µM in [1] (5 uM) is 90.1%; in [2] it was 102%; in assay [3] (setting [15]), 95.4%; in [3] (setting [16]), 114%; in assay [4] (5 uM) it was 105%; in assay [5], 87%. The remaining activity at 5 µM is 101% in assay [6]; 102% in [7]; 124% in [8]; 101% in [9]; 96.5% in assay [10].

For the molecule `O=C(Nc1cnn(-c2csc(C(=O)NC3COC3)c2)c1)Nc1c(F)cccc1Cl` [Compound 25, 4-(4-(3-(2-chloro-6-fluorophenyl)ureido)-1H-pyrazol-1-yl)-N-(oxetan-3-yl)thiophene-2-carboxamide], the remaining activity at 5 µM in assay [2] was determined as 94.2%; in assay [3] (setting [15]), 105%; in assay [3] (setting [16]) it was 92.6%; in assay [5] it was 89.6%; in [11] (5 uM), 108%; in [6], 70.7%. Also, the remaining activity at 5 µM in assay [12] (5 uM) was found to be 90.5%; in assay [13] (5 uM), 108%; in assay [7], 98.7%; in [14] (5 uM) it was 108%; in assay [8] it was 85.2%; in assay [9] it was 97.5%. Moreover, in assay [10], the remaining activity at 5 µM stood at 82.2%.

As for `Cc1sc(C(=O)NC2COC2)cc1-n1cc(NC(=O)Nc2c(F)cccc2Cl)cn1` [Compound 27, 4-(4-(3-(2-chloro-6-fluorophenyl)ureido)-1H-pyrazol-1-yl)-5-methyl-N-(oxetan-3-yl)thiophene-2-carboxamide], the remaining activity at 10 µM is 98.8% in assay [1] (10 uM); 95.5% in assay [4] (10 uM); 101% in [11] (10 uM); 97% in assay [12] (10 uM); 96.7% in assay [13] (10 uM); 96.7% in [7] (10 uM). Besides, the remaining activity at 10 µM in [14] (10 uM) stood at 101%.
